Values joined by “and” are separate entries in the source; they are usually repeats but may differ in a detail not shown here. Identical values can stand only once. Inconclusive results are not listed.
System: BDF1 mice, s.c. Lewis lung carcinoma, T/C %
Assay: NCI In Vivo Anticancer Drug Screen. Data for tumor model Lewis Lung Carcinoma (subcutaneous) in B6D2F1 (BDF1) mice
Outline: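 Transplanted tumors grown in mice; compound vs vehicle dosing; endpoint survival or tumor size; ratio T/C.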

With `CC[C@]1(O)C[C@H]2CN(CCc3c([nH]c4ccccc34)[C@@](C(=O)OC)(c3cc4c(cc3OC)N(C)[C@H]3[C@@](O)(C(=O)OC)[C@H](OC(C)=O)[C@]5(CC)C=CCN6CC[C@]43[C@@H]65)C2)C1` the T/C (endpoint: mean tumor weight, dose: 0.12 mg/kg/injection, schedule: Q01DX011 (ip), vehicle: saline, higher = larger tumour) was 109 % of control, the T/C (endpoint: mean tumor weight, dose: 0.24 mg/kg/injection, schedule: Q01DX011 (ip), vehicle: saline, higher = larger tumour) was 94 % of control and the T/C (endpoint: mean tumor weight, dose: 0.36 mg/kg/injection, schedule: Q01DX011 (ip), vehicle: saline, higher = larger tumour) was 84 % of control. The T/C (endpoint: mean tumor weight, dose: 0.54 mg/kg/injection, schedule: Q01DX011 (ip), vehicle: saline, higher = larger tumour) was 99 % of control, the T/C (endpoint: mean tumor weight, dose: 0.8 mg/kg/injection, schedule: Q01DX011 (ip), vehicle: saline, higher = larger tumour) was 60 % of control and the T/C (endpoint: mean tumor weight, dose: 0.81 mg/kg/injection, schedule: Q01DX011 (ip), vehicle: saline, higher = larger tumour) was 111 % of control. For the same compound, the T/C (endpoint: mean tumor weight, dose: 125.0 micrograms/kg/injection, schedule: Q01DX011 (ip), vehicle: saline, higher = larger tumour) was 61 % of control, the T/C (endpoint: mean tumor weight, dose: 250.0 micrograms/kg/injection, schedule: Q01DX011 (ip), vehicle: saline, higher = larger tumour) was 53 % of control and the T/C (endpoint: median survival time, dose: 0.06 mg/kg/injection, schedule: Q01DX009 (ip), vehicle: saline, higher = longer survival) was 101 % of control and 118 % of control. The T/C (endpoint: median survival time, dose: 0.12 mg/kg/injection, schedule: Q01DX009 (ip), vehicle: saline, higher = longer survival) was 88 % of control and the T/C (endpoint: median survival time, dose: 0.25 mg/kg/injection, schedule: Q01DX009 (ip), vehicle: saline, higher = longer survival) was 96 % of control.

`CC(C)=CCC(OC(=O)C=C(C)C)C1=CC(=O)c2c(O)ccc(O)c2C1=O` (stereo not given) was tested, and the T/C (endpoint: median survival time, dose: 6.25 mg/kg/injection, schedule: Q01DX009 (ip), vehicle: Klucel (hydroxypropylcellulose) (HPC), higher = longer survival) was 104 % of control, the T/C (endpoint: median survival time, dose: 12.5 mg/kg/injection, schedule: Q01DX009 (ip), vehicle: Klucel (hydroxypropylcellulose) (HPC), higher = longer survival) was 88 % of control and the T/C (endpoint: median survival time, dose: 25.0 mg/kg/injection, schedule: Q01DX009 (ip), vehicle: Klucel (hydroxypropylcellulose) (HPC), higher = longer survival) was 118 % of control.

`CCS(=O)(=O)Nc1cccc(Nc2c3cccc(C)c3nc3c(C)cccc23)c1OC` was tested, and the T/C (endpoint: median survival time, dose: 12.5 mg/kg/injection, schedule: Q01DX011 (ip), vehicle: saline with Tween-80, higher = longer survival) was 111 % of control, the T/C (endpoint: median survival time, dose: 25.0 mg/kg/injection, schedule: Q01DX011 (ip), vehicle: saline with Tween-80, higher = longer survival) was 101 % of control and the T/C (endpoint: median tumor weight (est.), dose: 12.5 mg/kg/injection, schedule: Q01DX011 (ip), vehicle: saline with Tween-80, higher = larger tumour) was 82 % of control. The T/C (endpoint: median tumor weight (est.), dose: 25.0 mg/kg/injection, schedule: Q01DX011 (ip), vehicle: saline with Tween-80, higher = larger tumour) was 44 % of control.

In the case of `CCNCc1cc(Nc2cc(C)nc(/N=C(\N)Nc3ccc(Cl)c(Cl)c3)n2)ccc1OC`, the T/C (endpoint: median survival time, dose: 0.8 mg/kg/injection, schedule: Q01DX009 (ip), vehicle: Klucel (hydroxypropylcellulose) (HPC), higher = longer survival) is reported as 96 % of control, the T/C (endpoint: median survival time, dose: 1.56 mg/kg/injection, schedule: Q01DX009 (ip), vehicle: Klucel (hydroxypropylcellulose) (HPC), higher = longer survival) is reported as 100 % of control and the T/C (endpoint: median survival time, dose: 3.12 mg/kg/injection, schedule: Q01DX009 (ip), vehicle: Klucel (hydroxypropylcellulose) (HPC), higher = longer survival) is reported as 96 % of control.

In the case of `CS(=O)(=O)OCCCCOS(C)(=O)=O`, the T/C (endpoint: mean tumor weight, dose: 12.5 mg/kg/injection, schedule: Q01DX011 (ip), vehicle: carboxymethylcellulose (CMC), higher = larger tumour) is reported as 91 % of control and 104 % of control, the T/C (endpoint: median survival time, dose: 10.0 mg/kg/injection, schedule: Q01DX009 (ip), vehicle: Klucel (hydroxypropylcellulose) (HPC), higher = longer survival) is reported as 94 % of control and the T/C (endpoint: median survival time, dose: 10.0 mg/kg/injection, schedule: Q01DX009 (ip), vehicle: saline with Tween-80, higher = longer survival) is reported as 100 % of control. The T/C (endpoint: median survival time, dose: 20.0 mg/kg/injection, schedule: Q01DX009 (ip), vehicle: saline with Tween-80, higher = longer survival) was 93 % of control, the T/C (endpoint: median survival time, dose: 40.0 mg/kg/injection, schedule: Q01DX009 (ip), vehicle: Klucel (hydroxypropylcellulose) (HPC), higher = longer survival) was 92 % of control and the T/C (endpoint: median tumor weight (est.), dose: 10.0 mg/kg/injection, schedule: Q01DX009 (ip), vehicle: saline with Tween-80, higher = larger tumour) was 86 % of control. The T/C (endpoint: median tumor weight (est.), dose: 20.0 mg/kg/injection, schedule: Q01DX009 (ip), vehicle: saline with Tween-80, higher = larger tumour) was 80 % of control and the T/C (endpoint: median tumor weight (est.), dose: 40.0 mg/kg/injection, schedule: Q01DX009 (ip), vehicle: saline with Tween-80, higher = larger tumour) was 45 % of control.

`O=P(N1CCOCC1)(N1CC1)N1CC1` was tested, and the T/C (endpoint: median survival time, dose: 0.78 mg/kg/injection, schedule: Q01DX009 (ip), vehicle: saline, higher = longer survival) was 100 % of control, the T/C (endpoint: median survival time, dose: 1.56 mg/kg/injection, schedule: Q01DX009 (ip), vehicle: saline, higher = longer survival) was 124 % of control and the T/C (endpoint: median survival time, dose: 3.12 mg/kg/injection, schedule: Q01DX009 (ip), vehicle: saline, higher = longer survival) was 100 % of control. For the same compound, the T/C (endpoint: median survival time, dose: 3.13 mg/kg/injection, schedule: Q01DX009 (ip), vehicle: saline, higher = longer survival) was 113 % of control, the T/C (endpoint: median survival time, dose: 6.25 mg/kg/injection, schedule: Q01DX009 (ip), vehicle: saline, higher = longer survival) was 97 % of control and 110 % of control and the T/C (endpoint: median survival time, dose: 25.0 mg/kg/injection, schedule: Q01DX009 (ip), vehicle: saline, higher = longer survival) was 107 % of control.

From PubChem BioAssay AID270 (DTP/NCI, 2004)
